Broadly, the IC50 is the concentration that inhibits the measured activity by half. High values mean lower potency, low ones higher potency.

The source of these data is patent US12344597B2, “Alkoxy-substituted pyridinyl derivatives as LPA1 receptor antagonists and their use in the treatment of fibrosis” (IDORSIA PHARMACEUTICALS LTD, priority 2018, dated 2025).

The target in the test is human LPA1 receptor (Homo sapiens (Human), UniProt Q92633). The experiment in a line: Beta-arrestin recruitment assay to determine IC50 values for human LPAR1. Format: cell-based. Particulars: antagonist mode, Tango EDG2-bla U2OS cells, LPA 18:1 500 nM final. The method, boiled down: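 Antagonist IC50 = concentration giving 50% inhibition of maximal LPA response. Read-out is beta-lactamase reporter activity after arrestin-protease recruitment in U2OS cells bearing LPA1-TEV-Gal4-VP16 construct; cells pre-incubated 20 h, 37 °C, 5% CO2.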
For orientation: Arrestin recruitment assays detect the binding of arrestin to an activated receptor.

human LPA1 receptor, sequence (Q92633 whole entry, the tested form may be a part): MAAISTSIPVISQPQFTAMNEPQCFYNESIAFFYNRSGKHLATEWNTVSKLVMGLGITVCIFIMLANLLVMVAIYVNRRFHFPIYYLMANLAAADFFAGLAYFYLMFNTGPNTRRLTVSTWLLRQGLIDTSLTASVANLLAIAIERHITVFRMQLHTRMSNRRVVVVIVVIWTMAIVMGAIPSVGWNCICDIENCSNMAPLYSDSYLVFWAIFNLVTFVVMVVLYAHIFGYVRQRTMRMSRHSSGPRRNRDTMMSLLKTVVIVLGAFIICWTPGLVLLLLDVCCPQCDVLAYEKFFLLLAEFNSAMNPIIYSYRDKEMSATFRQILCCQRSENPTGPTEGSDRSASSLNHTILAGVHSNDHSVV

The molecule `Cc1ccc(NC(=O)C2(c3ccccc3C(C)C)CN(C(=O)O[C@@H](C)C(=O)O)C2)c(OC(F)F)n1` [Ex 14-4, (S)-2-((3-((2-(difluoromethoxy)-6-methylpyridin-3-yl)carbamoyl)-3-(2-isopropylphenyl)azetidine-1-carbonyl)oxy)propanoic acid] showed a concentration for half-maximal inhibition (IC50) of 16 nM.
With `Cc1ccc(NC(=O)C2(c3ccccc3C(C)C)CN(C(=O)O[C@H](C)C(=O)O)C2)c(OC(F)F)n1` [Ex 14-5, (R)-2-((3-((2-(difluoromethoxy)-6-methylpyridin-3-yl)carbamoyl)-3-(2-isopropylphenyl)azetidine-1-carbonyl)oxy)propanoic acid] the figure was 9 nM.
The molecule `COC(=O)C(C)(C)OC(=O)N1CC(C(=O)Nc2ccc(C)nc2OC(F)F)(c2ccccc2C(C)C)C1` [Ex 14-6, 1-methoxy-2-methyl-1-oxopropan-2-yl 3-((2-(difluoromethoxy)-6-methylpyridin-3-yl)carbamoyl)-3-(2-isopropylphenyl)azetidine-1-carboxylate] gave a concentration for half-maximal inhibition (IC50) of 143 nM.
In turn, `COC(=O)C1(OC(=O)N2CC(C(=O)Nc3ccc(C)nc3OC(F)F)(c3ccccc3C(C)C)C2)CC1` [Ex 14-7, 1-(methoxycarbonyl)cyclopropyl 3-((2-(difluoromethoxy)-6-methylpyridin-3-yl)carbamoyl)-3-(2-isopropylphenyl)azetidine-1-carboxylate] gave an IC50 of 79 nM.
For the molecule `Cc1ccc(NC(=O)C2(c3ccccc3C(C)C)CN(C(=O)OC3(C(=O)O)CC3)C2)c(OC(F)F)n1` [Ex 14-8, 1-((3-((2-(difluoromethoxy)-6-methylpyridin-3-yl)carbamoyl)-3-(2-isopropylphenyl)azetidine-1-carbonyl)oxy)cyclopropane-1-carboxylic acid], the IC50 is 14 nM.
To `COC(=O)C(C)(C)COC(=O)N1CC(C(=O)Nc2ccc(C)nc2OC(F)F)(c2ccccc2C(C)C)C1` [Ex 14-9, 3-methoxy-2,2-dimethyl-3-oxopropyl 3-((2-(difluoromethoxy)-6-methylpyridin-3-yl)carbamoyl)-3-(2-isopropylphenyl)azetidine-1-carboxylate] belongs 42 nM; to `Cc1ccc(NC(=O)C2(c3ccccc3C(C)C)CN(C(=O)OCC(C)(C)C(=O)O)C2)c(OC(F)F)n1` [Ex 14-10, 3-((3-((2-(difluoromethoxy)-6-methylpyridin-3-yl)carbamoyl)-3-(2-isopropylphenyl)azetidine-1-carbonyl)oxy)-2,2-dimethylpropanoic acid], 4 nM.
Turning to `COC(=O)C1(COC(=O)N2CC(C(=O)Nc3ccc(C)nc3OC(F)F)(c3ccccc3C(C)C)C2)CC1` [Ex 14-11, (1-(methoxycarbonyl)cyclopropyl)methyl 3-((2-(difluoromethoxy)-6-methylpyridin-3-yl)carbamoyl)-3-(2-isopropylphenyl)azetidine-1-carboxylate], the half-inhibitory concentration (IC50) came out at 127 nM.
To `Cc1ccc(NC(=O)C2(c3ccccc3C(C)C)CN(C(=O)OCC3(C(=O)O)CC3)C2)c(OC(F)F)n1` [Ex 14-12, 1-(((3-((2-(difluoromethoxy)-6-methylpyridin-3-yl)carbamoyl)-3-(2-isopropylphenyl)azetidine-1-carbonyl)oxy)methyl)cyclopropane-1-carboxylic acid] belongs 5 nM; to `COC(=O)C1(COC(=O)N2CC(C(=O)Nc3ccc(C)nc3OC(F)F)(c3ccccc3C(C)C)C2)COC1` [Ex 14-13, (3-(methoxycarbonyl)oxetan-3-yl)methyl 3-((2-(difluoromethoxy)-6-methylpyridin-3-yl)carbamoyl)-3-(2-isopropylphenyl)azetidine-1-carboxylate], 29 nM; to `Cc1ccc(NC(=O)C2(c3ccccc3C(C)C)CN(C(=O)OCC3(C(=O)O)COC3)C2)c(OC(F)F)n1` [Ex 14-14, 3-(((3-((2-(difluoromethoxy)-6-methylpyridin-3-yl)carbamoyl)-3-(2-isopropylphenyl)azetidine-1-carbonyl)oxy)methyl)oxetane-3-carboxylic acid], 30 nM.
In turn, `CCOC(=O)CNS(=O)(=O)N1CC(C(=O)Nc2ccc(C)nc2OC(F)F)(c2ccccc2C(C)C)C1` [Ex 15-1, Ethyl ((3-((2-(difluoromethoxy)-6-methylpyridin-3-yl)carbamoyl)-3-(2-isopropylphenyl)azetidin-1-yl)sulfonyl)glycinate] returned an IC50 of 5 nM.
`Cc1ccc(NC(=O)C2(c3ccccc3C(C)C)CN(S(=O)(=O)NCC(=O)O)C2)c(OC(F)F)n1` [Ex 15-2, ((3-((2-(difluoromethoxy)-6-methylpyridin-3-yl)carbamoyl)-3-(2-isopropylphenyl)azetidin-1-yl)sulfonyl)glycine] yielded an IC50 of 7 nM.
With `Cc1ccc(NC(=O)C2(c3ccccc3C(C)C)CN(S(=O)(=O)NCCO)C2)c(OC(F)F)n1` [Ex 15-3, N-(2-(difluoromethoxy)-6-methylpyridin-3-yl)-1-(N-(2-hydroxyethyl)sulfamoyl)-3-(2-isopropylphenyl)azetidine-3-carboxamide] the figure was 11 nM.
On to `Cc1ccc(NC(=O)C2(c3ccccc3C(C)C)CN(S(=O)(=O)NCCF)C2)c(OC(F)F)n1` [Ex 15-4, N-(2-(difluoromethoxy)-6-methylpyridin-3-yl)-1-(N-(2-fluoroethyl)sulfamoyl)-3-(2-isopropylphenyl)azetidine-3-carboxamide], for which the IC50 amounted to 15 nM.
To `CC(C)c1ccccc1C1(C(=O)Nc2cccnc2OC(F)F)CN(S(N)(=O)=O)C1` [Ex 15-6, N-(2-(difluoromethoxy)pyridin-3-yl)-3-(2-isopropylphenyl)-1-sulfamoylazetidine-3-carboxamide] belongs 10 nM; to `COc1ccc(NC(=O)C2(c3ccccc3C(C)C)CN(S(N)(=O)=O)C2)c(OC)n1` [Ex 15-7, N-(2,6-dimethoxypyridin-3-yl)-3-(2-isopropylphenyl)-1-sulfamoylazetidine-3-carboxamide], 4 nM.
To `CCOc1ccc(NC(=O)C2(c3ccccc3C(C)C)CN(S(N)(=O)=O)C2)c(OC)n1` [Ex 15-8, N-(6-ethoxy-2-methoxypyridin-3-yl)-3-(2-isopropylphenyl)-1-sulfamoylazetidine-3-carboxamide] belongs 4 nM; to `CCCNS(=O)(=O)N1CC(C(=O)Nc2ccc(C)nc2OC(F)F)(c2ccccc2C(C)C)C1` [Ex 15-11, N-(2-(difluoromethoxy)-6-methylpyridin-3-yl)-3-(2-isopropylphenyl)-1-(N-propylsulfamoyl)azetidine-3-carboxamide], 6 nM.
Consider `Cc1ccc(NC(=O)C2(c3ccccc3C(C)C)CN(S(=O)(=O)NC(C)C)C2)c(OC(F)F)n1` [Ex 15-12, N-(2-(difluoromethoxy)-6-methylpyridin-3-yl)-3-(2-isopropylphenyl)-1-(N-isopropylsulfamoyl)azetidine-3-carboxamide], for which it took 25 nM to reach half-maximal inhibition (IC50).
With `Cc1ccc(NC(=O)C2(c3ccccc3C(C)C)CN(S(=O)(=O)NC3CC3)C2)c(OC(F)F)n1` [Ex 15-13, 1-(N-cyclopropylsulfamoyl)-N-(2-(difluoromethoxy)-6-methylpyridin-3-yl)-3-(2-isopropylphenyl)azetidine-3-carboxamide] the figure was 11 nM; with `CC(C)c1ccccc1C1(C(=O)Nc2cc(F)cnc2OC(F)F)CN(S(N)(=O)=O)C1` [Ex 15-15, N-(2-(difluoromethoxy)-5-fluoropyridin-3-yl)-3-(2-isopropylphenyl)-1-sulfamoylazetidine-3-carboxamide], 10 nM.
